Experimental data from patent publication US20220324835A1 (Nurix Therapeutics, Inc., priority 2018, published 2022).

How the values were obtained:
T-cell [1] = assay: CD25 cell surface staining on T-cells stimulated with anti-CD3 antibody alone (Biological Example 2); assay type: cell-based; conditions: primary human total T-cells, baseline = anti-CD3/anti-CD28 stimulated cells without inhibitor, read-out: CD25 staining, Anti-CD3 stimulation, fold change over baseline; for fold induction at 1 µM: 1 μM compound; for fold induction at 8 µM: 8 μM compound
T-cell [2] = assay: IL-2 secretion from T-cells co-stimulated with anti-CD3 and anti-CD28 antibody (Biological Example 2); assay type: cell-based, human; conditions: Homo sapiens, T-cell, primary human total T-cells, baseline = anti-CD3/anti-CD28 stimulated cells without inhibitor, read-out: IL-2 secretion, Anti-CD3/Anti-CD28 stimulation, fold change over baseline; for fold induction at 0.3 µM: 0.3 μM compound; for fold induction at 1 µM: 1 μM compound; for fold induction at 4 µM: 4 μM compound
How it was run: (§1)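 No assay protocol given; T-cells stimulated with anti-CD3 alone or anti-CD3 plus anti-CD28, with or without Cbl-b inhibitor. Activation read as IL-2 secretion or CD25 surface staining, expressed as fold over baseline from uninhibited cells […].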

Cbl-b [3] = target: T1, Cbl-b (Homo sapiens, UniProt Q13191); assay: Cbl-b activity assay (Cbl-b inhibition assay), TR-FRET of Cbl-b interaction with UbcH5B-Ub; assay type: biochemical; conditions: assay buffer with 100 mM NaCl, 60 nM Src kinase; read-out: Cbl-b activity IC50
How it was run: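 TR-FRET readout of Cbl-b binding to Bodipy-fluorescein N-terminally labeled Ub conjugated to UbcH5B C85K, measured with compound present. After compound incubation, 60 nM Src kinase with 1 mM ATP and 5 mM MgCl2 (final) was added for 1.5 h, then a further 1 h incubation; asterisked values used 50 mM NaCl buffer and 30 nM Src.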

Cbl-b [4] = target: T1, Cbl-b; assay: Cbl-b inhibition assay (Cbl-b activity assay, FRET, Biological Example 1; 100 mM NaCl, 60 nM Src kinase); assay type: biochemical; conditions: upper bound stated in text lists; read-out: IC50 values in the Cbl-b inhibition assay of Biological Example 1
How it was run: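 Inhibition is read as loss of FRET signal. The signal arises when Src-phosphorylated, N-terminal biotinylated Avi-Cbl-b (captured by streptavidin-terbium) binds UbcH5B carrying covalently linked Bodipy-Fluorescein-tagged ubiquitin.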

T-cell [5] = assay: CD25 cell surface staining on T-cells co-stimulated with anti-CD3 and anti-CD28 antibody (Biological Example 2); assay type: cell-based, human; conditions: Homo sapiens, T-cell, primary human total T-cells, baseline = anti-CD3/anti-CD28 stimulated cells without inhibitor, read-out: CD25 staining, Anti-CD3/Anti-CD28 stimulation, fold change over baseline; for fold induction at 0.3 µM: 0.3 μM compound; for fold induction at 1 µM: 1 μM compound; for fold induction at 4 µM: 4 μM compound
How it was run: as §1

Cbl-b (residues 36-427) = Cbl-b (residues 36-427) (Homo sapiens, UniProt Q13191); assay: Cbl-b binding assay (SPR, Biacore T200); conditions: 20° C., 1:1 binding model
How it was run: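 Affinities derived from global 1:1 steady-state or kinetic fits of double-referenced, solvent-corrected SPR data, 20 °C, NeutrAvidin-capture chip. Compound series (top 100 or 50 μM, 8–10 points) injected 50 s, 90–180 s dissociation. Asterisked values used 50 mM instead of 100 mM NaCl and 30 nM Src kinase.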

T-cell [6] = assay: IL-2 secretion from T-cells stimulated with anti-CD3 antibody alone (Biological Example 2); assay type: cell-based; conditions: primary human total T-cells, read-out: IL-2 secretion, Anti-CD3 stimulation, fold change over baseline; for fold induction at 1 µM: 1 μM compound; for fold induction at 8 µM: 8 μM compound

Sequence of Cbl-b (residues 36-427) (Q13191 36-427): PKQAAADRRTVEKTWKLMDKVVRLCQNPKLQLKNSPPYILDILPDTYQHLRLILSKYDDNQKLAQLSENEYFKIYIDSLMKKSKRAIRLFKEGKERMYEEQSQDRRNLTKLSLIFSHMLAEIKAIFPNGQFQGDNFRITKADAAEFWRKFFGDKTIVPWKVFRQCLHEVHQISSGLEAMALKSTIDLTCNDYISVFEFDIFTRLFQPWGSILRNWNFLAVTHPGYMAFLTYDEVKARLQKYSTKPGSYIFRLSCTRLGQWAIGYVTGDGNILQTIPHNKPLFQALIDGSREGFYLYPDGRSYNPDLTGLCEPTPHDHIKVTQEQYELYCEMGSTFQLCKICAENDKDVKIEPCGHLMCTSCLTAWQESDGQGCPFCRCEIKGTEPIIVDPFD
T1 sequence (Q13191 36-427): as above

Row | Structure (SMILES) | fold induction at 1 µM (T-cell [1]) | fold induction at 8 µM (T-cell [1]) | fold induction at 0.3 µM (T-cell [2]) | fold induction at 1 µM (T-cell [2]) | fold induction at 4 µM (T-cell [2]) | IC50 (Cbl-b [3]) [nM] | IC50 (Cbl-b [4]) [nM] | fold induction at 0.3 µM (T-cell [5]) | fold induction at 1 µM (T-cell [5]) | fold induction at 4 µM (T-cell [5]) | Kd (Cbl-b (residues 36-427)) [nM] | fold induction at 1 µM (T-cell [6]) | fold induction at 8 µM (T-cell [6])
1 | Cc1c[nH]nc1C[C@@H](C)c1cccc(N2Cc3c(cc(C(=O)N4CCC(O)C4)cc3C(F)(F)F)C2=O)c1 (stereo in doubt) [Compound 463, 6-((S)-3-hydroxypyrrolidine-1-carbonyl)-2-(3-((R)-1-(4-methyl-1H-pyrazol-3-yl)propan-2-yl)phenyl)-4-(trifluoromethyl)isoindolin-1-one] | 0.801 to 1 | > 1 | 1.01 to 2.5 | 2.51 to 5 | > 7.5 | < 100 | ≤ 100 | 1.01 to 1.3 | 1.01 to 1.3 | 1.31 to 1.5 | < 100 | 0.101 to 0.15 | > 0.201
2 | Cn1cnnc1[C@H](F)C(C)(F)c1cccc(N2Cc3c(cccc3C(F)(F)F)C2=O)c1 (stereo in doubt) [Compound 479, 2-(3-((1S,2S)-1,2-difluoro-1-(4-methyl-4H-1,2,4-triazol-3-yl)propan-2-yl)phenyl)-4-(trifluoromethyl)isoindolin-1-one] | 0.601 to 0.8 | 0.801 to 1 | 1.01 to 2.5 | 1.01 to 2.5 | 1.01 to 2.5 | < 100 | ≤ 100 | 1.01 to 1.3 | 1.01 to 1.3 | 1.01 to 1.3 | 100 to 300 | < 0.05 | 0.101 to 0.15
3 | C[C@H](O)CNc1cc([C@H](C)Cc2nncn2C)cc(N2Cc3c(cccc3C(F)(F)F)C2=O)n1 [Compound 364, 2-(6-((S)-2-hydroxypropylamino)-4-((R)-1-(4-methyl-4H-1,2,4-triazol-3-yl)propan-2-yl)pyridin-2-yl)-4-(trifluoromethyl)isoindolin-1-one] | 0.601 to 0.8 | 0.601 to 0.8 | 1.01 to 2.5 | 1.01 to 2.5 | 1.01 to 2.5 | 301 to 1000 | – | 1.01 to 1.3 | 1.01 to 1.3 | 1.01 to 1.3 | 1000 to 3000 | 0.051 to 0.1 | 0.101 to 0.15
4 | C[C@H](CO)Nc1cc([C@H](C)Cc2nncn2C)cc(N2Cc3c(cccc3C(F)(F)F)C2=O)n1 [Compound 366, 2-(6-((R)-1-hydroxypropan-2-ylamino)-4-((R)-1-(4-methyl-4H-1,2,4-triazol-3-yl)propan-2-yl)pyridin-2-yl)-4-(trifluoromethyl)isoindolin-1-one] | 0.801 to 1 | > 1 | 1.01 to 2.5 | 2.51 to 5 | 5 to 7.5 | 100 to 300 | ≤ 300 | 1.01 to 1.3 | 1.01 to 1.3 | 1.31 to 1.5 | 100 to 300 | 0.051 to 0.1 | > 0.201
5 | Cc1conc1C[C@@H](C)c1cccc(N2Cc3c(cccc3C(F)(F)F)C2=O)c1 [Compound 367a, (R)-2-(3-(1-(4-Methylisoxazol-3-yl)propan-2-yl)phenyl)-4-(trifluoromethyl)isoindolin-1-one] | 0.601 to 0.8 | 0.801 to 1 | < 1 | < 1 | 1.01 to 2.5 | 100 to 300 | ≤ 300 | 1.01 to 1.3 | < 1 | 1.01 to 1.3 | 1000 to 3000 | 0.051 to 0.1 | 0.151 to 0.2
6 | C[C@H](Cc1nncn1C)c1cccc(N2Cc3c(cc(C4CC4)nc3C3CC3)C2=O)c1 [Compound 370, 4,6-dicyclopropyl-2-{3-[(2R)-1-(4-methyl-1,2,4-triazol-3-yl)propan-2-yl]phenyl}-3H-pyrrolo[3,4-c]pyridin-1-one] | 0.601 to 0.8 | 0.801 to 1 | 1.01 to 2.5 | 1.01 to 2.5 | 5 to 7.5 | 100 to 300 | ≤ 300 | 1.01 to 1.3 | 1.01 to 1.3 | > 1.76 | 100 to 300 | 0.051 to 0.1 | > 0.201
7 | C[C@H](Cc1nncn1C)c1cccc(N2Cc3c(ccnc3C(F)(F)F)C2=O)c1 [Compound 371, (R)-2-(3-(1-(4-methyl-4H-1,2,4-triazol-3-yl)propan-2-yl)phenyl)-4-(trifluoromethyl)-2,3-dihydro-1H-pyrrolo[3,4-c]pyridin-1-one] | 0.801 to 1 | > 1 | 1.01 to 2.5 | 2.51 to 5 | 5 to 7.5 | 100 to 300 | ≤ 300 | 1.01 to 1.3 | 1.01 to 1.3 | 1.01 to 1.3 | 301 to 1000 | 0.101 to 0.15 | > 0.201
8 | C[C@H](Cc1nncn1C)c1cccc(N2Cc3c(cc(C(C)(C)O)cc3C(F)(F)F)C2=O)c1 [Compound 374, (R)-6-(2-hydroxypropan-2-yl)-2-(3-(1-(4-methyl-4H-1,2,4-triazol-3-yl)propan-2-yl)phenyl)-4-(trifluoromethyl)isoindolin-1-one] | 0.801 to 1 | > 1 | 2.51 to 5 | 5 to 7.5 | > 7.5 | < 100 | ≤ 100 | 1.01 to 1.3 | 1.31 to 1.5 | 1.31 to 1.5 | 100 to 300 | 0.151 to 0.2 | > 0.201
9 | C[C@@H]1[C@@H](c2nncn2C)[C@H]1c1cccc(N2Cc3c(cccc3C(F)(F)F)C2=O)c1 [Compound 375, 2-[3-[(1 S,2S,3R)-2-methyl-3-(4-methyl-4H-1,2,4-triazol-3-yl)cyclopropyl]phenyl]-4-(trifluoromethyl)-2,3-dihydro-1H-isoindol-1-one] | > 1 | > 1 | 2.51 to 5 | 5 to 7.5 | > 7.5 | < 100 | ≤ 100 | 1.01 to 1.3 | 1.31 to 1.5 | 1.31 to 1.5 | < 100 | > 0.201 | > 0.201
10 | Cn1cnnc1[C@H](F)[C@](C)(F)c1cccc(N2Cc3c(cc(C4CC4)cc3C(F)(F)F)C2=O)c1 [Compound 481a, 6-cyclopropyl-2-[3-[(1S,2R)-1,2-difluoro-1-(4-methyl-4H-1,2,4-triazol-3-yl)propan-2-yl]phenyl]-4-(trifluoromethyl)-2,3-dihydro-1H-isoindol-1-one] | 0.801 to 1 | > 1 | < 1 | 1.01 to 2.5 | 2.51 to 5 | 100 to 300 | – | 1.01 to 1.3 | 1.01 to 1.3 | 1.01 to 1.3 | 100 to 300 | 0.051 to 0.1 | 0.101 to 0.15
